Assay results: patent US5160526A, “Alkene stabilizers for 3-isothiazolone compounds” (priority 1991, dated 1992)
Like-named read-outs stand apart in the source and are kept apart here. Each block holds one compound with its values, some of them ahead of it.

Tests used:
[1] = format: physicochemical; conditions: for 2-Methyl (%) / 5-Chloro (%): 2-propanol, 55° C
Protocol: Varying amounts of DHP were added and the vials put in a 55° C. oven. Active ingredient analysis was done periodically.

[2] = Stabilization of 5-Chloro and 2-Methyl mixture by norbornene in 2-propanol, 55° C oven; format: physicochemical
Description: This solution was distributed into 6 vials and varying amounts of norbornene added.

[3] = 2-propanol + 2% water, 55° C
Protocol: A solution of 5-chloro-2methyl-3-isothiazolone ("5-Chloro") and 2-methyl-3-isothiazolone ("2-Methyl") (3.11 g) was prepared in 2-propanol (12.1 g). This solution was distributed in 6 vials. Water (2%) and varying amounts of norbornene were then added. These were then put in a 55° C. oven and analyzed periodically.

[4] = Stabilization of 5-Chloro and 2-Methyl mixture by norbornene in dipropylene glycol containing 0.5% water, 55° C oven; format: physicochemical; conditions: DPG (0.5% water)
Protocol: To 19.9 g of dipropylene glycol was added 0.1 g of water. […] This solution was distributed into 6 vials and varying amounts of norbornene were added.

[5] = format: physicochemical; conditions: DPG, 55° C
Protocol: This solution was distributed into 6 vials (3 g each) and varying amounts of cyclohexene were added. The vials were then heated at 55° C. and analyzed periodically.

[6] = format: physicochemical; conditions: kerosene/diethylene glycol butyl ether
Protocol: In a formulation comprised of 3 parts by weight of a mixture of 5-chloro-2-methyl-3-isothiazolone and 2-methyl-3-isothiazolone in a 3:1 ratio, 94 parts by weight of a mixture of kerosene […] and diethylene glycol butyl ether (20 parts by weight), 3 parts by weight norbornene stabilizer was added. The control had no norbornene.
Example 9 was repeated except using 1 part by weight norbornene. No loss of 5-chloro-2-methyl-3-isothiazolone was observed after eight weeks at 55° C.
Example 9 was repeated except using 1-tetradecene as stabilizer resulting in 86% 5-chloro-2-methyl-3-isothiazolone remaining after four weeks at 55° C. and complete loss by eight weeks.

stability imparted to isothiazolones (in words) [1]: imparts no stability
SMILES: C1=COCCC1 [DHP, 3,4-Dihydro-2H-pyran]

SMILES: Cn1sc(Cl)cc1=O [5-chloro-2-methyl-3-isothiazolone]
stabilization with norbornene (in words) [2]: completely stabilized | 2-Methyl (%) / 5-Chloro (%) ([3]; 0% norbornene, 0 days): 12.2% | 2-Methyl (%) / 5-Chloro (%) ([3]; 0% norbornene, 7 days): 0.23% | 2-Methyl (%) / 5-Chloro (%) ([3]; 1.2% norbornene, 0 days): 16.7% | 2-Methyl (%) / 5-Chloro (%) ([3]; 1.2% norbornene, 7 days): 0.09% | 2-Methyl (%) / 5-Chloro (%) ([3]; 2.3% norbornene, 0 days): 16.5% | 2-Methyl (%) / 5-Chloro (%) ([3]; 2.3% norbornene, 7 days): 0.09% | 2-Methyl (%) / 5-Chloro (%) ([3]; 4.2% norbornene, 0 days): 16.2% | 2-Methyl (%) / 5-Chloro (%) ([3]; 4.2% norbornene, 7 days): 0.07% | 2-Methyl (%) / 5-Chloro (%) ([3]; 8.1% norbornene, 0 days): 15.7% | 2-Methyl (%) / 5-Chloro (%) ([3]; 8.1% norbornene, 7 days): < 0.1% | 2-Methyl (%) / 5-Chloro (%) ([3]; 14.1% norbornene, 0 days): 14.7% | 2-Methyl (%) / 5-Chloro (%) ([3]; 14.1% norbornene, 7 days): 13.5% | 2-Methyl (%) / 5-Chloro (%) ([3]; 14.1% norbornene, 21 days): < 0.1% | 2-Methyl (%) / 5-Chloro (%) ([4]; 0% norbornene, 0 days): 11.7% | 2-Methyl (%) / 5-Chloro (%) ([4]; 0% norbornene, 14 days): 0.0% | 2-Methyl (%) / 5-Chloro (%) ([4]; 0% norbornene, 30 days): 0% | 2-Methyl (%) / 5-Chloro (%) ([4]; 1.6% norbornene, 0 days): 11.7% | 2-Methyl (%) / 5-Chloro (%) ([4]; 1.6% norbornene, 14 days): 0% | 2-Methyl (%) / 5-Chloro (%) ([4]; 3.2% norbornene, 0 days): 11.5% | 2-Methyl (%) / 5-Chloro (%) ([4]; 3.2% norbornene, 14 days): 10.4% | 2-Methyl (%) / 5-Chloro (%) ([4]; 3.2% norbornene, 30 days): 0.1% | 2-Methyl (%) / 5-Chloro (%) ([4]; 6.5% norbornene, 0 days): 11.2% | 2-Methyl (%) / 5-Chloro (%) ([4]; 6.5% norbornene, 14 days): 10.8% | 2-Methyl (%) / 5-Chloro (%) ([4]; 6.5% norbornene, 30 days): 10.1% | 2-Methyl (%) / 5-Chloro (%) ([4]; 9.0% norbornene, 0 days): 11.0% | 2-Methyl (%) / 5-Chloro (%) ([4]; 9.0% norbornene, 14 days): 10.7% | 2-Methyl (%) / 5-Chloro (%) ([4]; 9.0% norbornene, 30 days): 10.4% | 2-Methyl (%) / 5-Chloro (%) ([4]; 14.3% norbornene, 0 days): 10.5% | 2-Methyl (%) / 5-Chloro (%) ([4]; 14.3% norbornene, 14 days): 10.2% | 2-Methyl (%) / 5-Chloro (%) ([4]; 14.3% norbornene, 30 days): 9.7% | 2-Methyl (%) / 5-Chloro (%) ([5]; 0% cyclohexene, 0 days): 11.4% | 2-Methyl (%) / 5-Chloro (%) ([5]; 0% cyclohexene, 13 days): < 0.1% | 2-Methyl (%) / 5-Chloro (%) ([5]; 3.2% cyclohexene, 0 days): 10.1% | 2-Methyl (%) / 5-Chloro (%) ([5]; 3.2% cyclohexene, 13 days): 0.19% | 2-Methyl (%) / 5-Chloro (%) ([5]; 6.8% cyclohexene, 0 days): 10.9% | 2-Methyl (%) / 5-Chloro (%) ([5]; 6.8% cyclohexene, 13 days): 0.10% | 2-Methyl (%) / 5-Chloro (%) ([5]; 9.1% cyclohexene, 0 days): 10.6% | 2-Methyl (%) / 5-Chloro (%) ([5]; 9.1% cyclohexene, 13 days): 8.6% | 2-Methyl (%) / 5-Chloro (%) ([5]; 9.1% cyclohexene, 30 days): 0.0% | 2-Methyl (%) / 5-Chloro (%) ([5]; 11.8% cyclohexene, 0 days): 10.5% | 2-Methyl (%) / 5-Chloro (%) ([5]; 11.8% cyclohexene, 13 days): 7.9% | 2-Methyl (%) / 5-Chloro (%) ([5]; 11.8% cyclohexene, 30 days): 0.0% | 2-Methyl (%) / 5-Chloro (%) ([5]; 16.7% cyclohexene, 0 days): 10.2% | 2-Methyl (%) / 5-Chloro (%) ([5]; 16.7% cyclohexene, 13 days): 9.0% | 2-Methyl (%) / 5-Chloro (%) ([5]; 16.7% cyclohexene, 30 days): 0.0% | 2-Methyl (%) / 5-Chloro (%) ([1]; 0% DHP, 0 days): 11.6% | 2-Methyl (%) / 5-Chloro (%) ([1]; 0% DHP, 12 days): 0.4% | 2-Methyl (%) / 5-Chloro (%) ([1]; 3.5% DHP, 0 days): 11.1% | 2-Methyl (%) / 5-Chloro (%) ([1]; 3.5% DHP, 12 days): 0.1% | 2-Methyl (%) / 5-Chloro (%) ([1]; 6.3% DHP, 0 days): 10.8% | 2-Methyl (%) / 5-Chloro (%) ([1]; 6.3% DHP, 12 days): 0.1% | 2-Methyl (%) / 5-Chloro (%) ([1]; 11.8% DHP, 0 days): 10.2% | 2-Methyl (%) / 5-Chloro (%) ([1]; 11.8% DHP, 12 days): 0.6% | 2-Methyl (%) / 5-Chloro (%) ([1]; 16.7% DHP, 0 days): 9.7% | 2-Methyl (%) / 5-Chloro (%) ([1]; 16.7% DHP, 12 days): 0.5% | 2-Methyl (%) / 5-Chloro (%) ([1]; 21.1% DHP, 0 days): 9.2% | 2-Methyl (%) / 5-Chloro (%) ([1]; 21.1% DHP, 12 days): 0.4% | loss of 5-chloro-2-methyl-3-isothiazolone ([6]; 1-tetradecene as stabilizer, by eight weeks at 55° C): complete loss | loss of 5-chloro-2-methyl-3-isothiazolone ([6]; 1 part by weight norbornene, eight weeks at 55° C): No loss | 5-chloro-2-methyl-3-isothiazolone left ([6]; control, no norbornene, eight weeks at 55° C): no 5-chloro-2-methyl-3-isothiazolone left | 5-chloro-2-methyl-3-isothiazolone remaining ([6]; 672 h): 86% | 5-chloro-2-methyl-3-isothiazolone remaining ([6]; 1344 h): 100%
